The results in this text go back to patent US20050180982A1, “Cadherin-11 expression, an assay and treatment for cellular invasiveness” (THE UNIVERSITY OF BRITISH COLUMBIA, priority 1998, published 2005).

What all share (type): cell-based, human
The subject of data set [1] is cad-11 mRNA in endometrial stromal cells. In words: Northern blot of cad-11 mRNA in cultured endometrial stromal cells treated with gonadal steroids. The conditions noted are these: P4 1 mM, E2 30 nM. The protocol:
(§1) Endometrial tissue biopsies (n=6) were obtained from women of reproductive age during the mid-secretory phase of the menstrual cycle. All patients had normal menstrual cycles and had not received hormones for at least three months prior to the collection of tissue. The stage of the menstrual cycle was determined by the last menstrual period and confirmed by histological evaluation.
The endometrial stromal cells were separated from the glandular epithelium by enzymatic digestion and mechanical dissociation. […] The purity of the cell cultures was determined by immunocytochemical staining for vimentin, cytokeratin, muscle actin, and […]. […]
The Northern blots were hybridized with radiolabelled cDNA probes specific for human cad-11 according to the methods of MacCalman et al. (1992) Developmental Dynamics 195:127-132. […] The absorbance values obtained for cad-11 mRNA transcripts were normalized relative to the 18S rRNA absorbance value.
(§2) The results are presented as the mean relative absorbance (+SE) for three independent experiments. Statistical differences between time points and treatments were assessed by the analysis of variance (ANOVA). […] Significant differences between the means were determined using the least significant test.

Data set [2] relates to cad-11 protein in endometrial stromal cells. The data set is described as follows: Western blot of cad-11 protein in cultured endometrial stromal cells treated with gonadal steroids. Here is the method:
as §1
The endometrial stromal cells were separated from the glandular epithelium by enzymatic digestion and mechanical dissociation. The endometrial biopsy specimens were minced and subjected to 0.1% colagenase (type 1A. Sigma Chemical Co., St. Louis. MO) and 0.1% hyaluronidase (type I-S, Sigma Chemical Co.) digestion in a shaking water bath at 37° C. for 1 hour. The cell digest was then passed through a nylon sieve (38 m). The isolated glands were retained on the sieve and the eluate containing the stromal cells collected in a 50 ml tube. […] The purity of the cell cultures was determined by immunocytochemical staining for vimentin, cytokeratin, muscle actin, and […]. […]
as §2
For orientation: A western blot detects proteins with antibodies after separation by electrophoresis.

For a further data set, the system named is cad-11. In words: Cad-11 antisense/sense oligonucleotide studies, second oligonucleotide pair. The conditions noted are these: no individual experiments specified. The protocol:
Antisense oligonucleotide sequences (18 mers, 50% AT/GC) were selected from the full-length cad-11 cDNA sequence using the MacVector™ program. DNA sequences located near the 5′ end of the cad-11 cDNA were selected and compared to the human sequence databases of GenBank and EMBL bank. […] Sense oligonucleotides, OB-3 and OB-4, were prepared as controls. Phosphothiorate labelled oligonucleotides were prepared at the Biotechnology Lab. of The University of British Columbia. The same results were obtained using OB-1 and OB-3, as with OB-2 and OB-4.

Regarding `CC(=O)[C@H]1CC[C@H]2[C@@H]3CCC4=CC(=O)CC[C@]4(C)[C@H]3CC[C@]12C` [P4, progesterone], the “time in culture at which maximum cad-11 mRNA levels were observed” value in data set [1] worked out at 12 days. The “stromal cad-11 mRNA levels” value in data set [1] (alone or together, increase seen after 2 days of culture, studied 0-12 days) was “significant increase”. Moreover, in data set [2], the “time in culture at which maximum cad-11 expression levels were detected” value was found to be 12 days. In addition, the cad-11 protein expression result in data set [2] (P4, E2 30 nM, alone or together, increase seen at 2 days of culture) is “increase”.
Consider “OB-2: cad-11 antisense oligonucleotide, 18 mer: CAC GAA GAA CTG GTT CCA (SEQ ID NO:2) (antisense CACGAAGAACTGGTTCCA; listed as DNA, chemistry not given here; listed as Homo sapiens)”, for which the “results compared with the pair OB-1 (antisense) and OB-3 (sense)” value in the data set on cad-11 is on record as “same results”.
As for “OB-4: sense oligonucleotide prepared as control: ACC TTG GTC AAG AAG CAC (SEQ ID NO:4) (sense ACCTTGGTCAAGAAGCAC; listed as DNA, chemistry not given here) [reference compound]”, the “results compared with the pair OB-1 (antisense) and OB-3 (sense)” value in the data set with cad-11 is on record as “same results”.
